Data on 8 substances can be found in publication PMC7437907, “Impact of pH and protein hydrophobicity on norovirus inactivation by heat-denatured lysozyme” (PLoS ONE, 2020).

Data set [1] deals with interleukin 6 (Il6) gene. Put plainly: Gene expression (qPCR) of RAW264.7 macrophages infected with DL-treated MNV-1: Il6. In kind it is cell-based. The note with it: MNV-1 exposed to 1.0% DL (pH 6.5 before denaturation) for 60 min, MOI 0.01, 24 h, fold-change vs mock by ΔΔCt, n = 3. The protocol:
(§1) RAW264.7 cell monolayers (1 × 10^7 cells/mL) in T25 cell flasks (Thermo Fisher Scientific K. K., Tokyo, Japan) were inoculated as described below.
(§2) Live MNV-1 (6 log PFU/mL) was used at a multiplicity of infection (MOI) of 0.01. For some experiments, MNV-1 (6 log PFU/mL) was inactivated by heating at 100°C for 40 min in an oil bath. The heat-treated MNV-1 was then used at MOI of 0.01 (infectivity as determined before heat inactivation). For another set of experiments, 100 μL of MNV-1 (6 log PFU/mL) was mixed with 100 μL of 2.0% of DL (adjusted at pH 6.5 before thermally-denaturation) and allowed to stand at room temperature for 60 min. The mixture was used at MOI of 0.01 (infectivity as before DL treatment).
(§3) The inoculated RAW264.7 cell monolayers were incubated at 37°C under 5% CO2 for 24 h. The cells were then detached by using a cell scraper (Thermo Fisher Scientific) and centrifuged at 300 × g for 5 min. […]
(§4) Total RNA was extracted from inoculated RAW264.7 macrophages using the RNeasy Mini kit (Qiagen, Hilden, Germany), according to the manufacturer’s instructions. […] The resulting cDNA was amplified by quantitative polymerase chain reaction (qPCR) to quantitate the expression levels of interferon β (Ifnb) and interleukin 6 (Il6) genes. […] Fold-changes in mRNA abundance were calculated by the ΔΔCt method, as previously described.
For orientation: Quantitative PCR measures a nucleic acid by following its amplification.

Data set [2] in a line: Surface hydrophobicity, protein stability and aggregation assay kit (PSA200K). The class given is physicochemical. The conditions noted are these: 1% lysozyme solution, pH 4.5–8.5, DL denatured 100°C 40 min, 1X PSA solution, λEx 550 nm, λEm 610 nm, compared with native lysozyme at same pH, p < 0.01, n = 3. On the procedure: Hydrophobicity, thiol group content, and circular dichroism (CD) spectra of the different DL preparations were analyzed. Hydrophobicity was measured by using protein stability and aggregation assay kit (PSA200K, Profoldin, Hudson, MA), according to the manufacturer’s instructions. Sample excitation was measured at 550 nm and emission at 610 nm, using a spectrofluorometer (SH-9000, Corona Electric Co., Ltd., Ibaraki, Japan). Thiol group content was determined in a reaction mixture containing 192 μL of deionized water, 20 mM Tris-HCl at pH 8.0, 2.8 μL of Ellman’s reagent [prepared by dissolving 4 mg of 5,5′-dithiobis-(2-nitrobenzoic acid) powder in 1 mL of Tris buffer at pH 7.0], and 200 μL of 1.0% (w/v) DL. After incubation at room temperature for 1 h in the dark, sample absorbance was measured at 412 nm by using a microplate reader (SH-1000 Lab, Corona Electric Co., Ltd.). CD spectra were acquired using a circular dichroism dispersometer (J-720, JASCO Corporation, Tokyo, Japan). For the analysis, DL preparation was diluted to 100 μg/mL in distilled water, and the spectra acquired in the range of 190 to 250 nm, with a scanning speed of 100 nm/min, a bandwidth of 1 nm, and integration frequency of 10.

The subject of data set [3] is MNV-1. Put plainly: Plaque assay for MNV-1 infectivity after exposure to DL preparations at different pH. The class given is cell-based, murine norovirus strain 1.
Procedure: The infectivity of MNV-1 was determined by a plaque assay, as described previously [9]. Briefly, RAW264.7 cells were seeded into 6-well plates (Falcon BD, Franklin Lakes, NJ) at approximately 6 log cells/mL in DMEM containing 5% (v/v) FBS, penicillin (100 U/mL), and streptomycin (100 μg/mL). The plates were incubated at 37°C under 5% CO2 for 18 h. Then, 500 μL/well of samples prepared as described below sections were added to the plates, and the plates were shaken at 20 r/min for 1 h. The inoculated sample was removed, and the wells overlaid with 2 mL of 1.5% (v/v) SeaPlaque agarose (Lonza Japan, Tokyo, Japan) in DMEM containing 5% (v/v) FBS. The plates were incubated at 37°C under 5% CO2 for 48 h. Then, 2 mL of 0.03% (v/v) neutral red solution (Sigma-Aldrich Japan, Tokyo, Japan) was added, and the plates incubated at 37°C under 5% CO2 for 1 h. Thus, visualized plaques were then counted. […] The samples were then diluted 10-fold in DMEM to stop the virus inactivation reaction and analyzed by the plaque assay, as described above.
For data set [4], the system named is MNV-1. The conditions noted are these: after exposure to DL for 1 h; cited from earlier work. The source says:
We have reported that thermally denatured lysozyme (DL) inactivates norovirus. […] Furthermore, DL inactivates norovirus in several foods and is also effective against the hepatitis A virus. However, the conditions for optimal DL norovirus-inactivating effects and the underlying mechanism remain unclear.

Data set [5] relates to MNV-1. Put plainly: MNV-1 inactivation by heat-denatured Lzm peptides (plaque assay). The note with it: peptides at same molar concentration as 1.0% (w/v) lysozyme, or DL 1% pH 3.7; heat-denatured 100°C 40 min; MNV-1 approx. 6 log PFU/mL, 60 min, room temperature; mean, n = 3. The class given is cell-based, murine norovirus strain 1. On the procedure: The infectivity of MNV-1 was determined by a plaque assay, as described previously. Briefly, RAW264.7 cells were seeded into 6-well plates (Falcon BD, Franklin Lakes, NJ) at approximately 6 log cells/mL in DMEM containing 5% (v/v) FBS, penicillin (100 U/mL), and streptomycin (100 μg/mL). The plates were incubated at 37°C under 5% CO2 for 18 h. Then, 500 μL/well of samples prepared as described below sections were added to the plates, and the plates were shaken at 20 r/min for 1 h. The inoculated sample was removed, and the wells overlaid with 2 mL of 1.5% (v/v) SeaPlaque agarose (Lonza Japan, Tokyo, Japan) in DMEM containing 5% (v/v) FBS. The plates were incubated at 37°C under 5% CO2 for 48 h. Then, 2 mL of 0.03% (v/v) neutral red solution (Sigma-Aldrich Japan, Tokyo, Japan) was added, and the plates incubated at 37°C under 5% CO2 for 1 h. Thus, visualized plaques were then counted. The synthesized peptides were dissolved in distilled water to the same molarity as 2.0% (w/v) lysozyme, 14,307 of molecular weight, and heated in an oil bath at 100°C for 40 min, then immediately cooled in ice. Next, 120 μL of MNV-1 solution at 6 log pfu/mL was mixed with 120 μL of the prepared heat-denatured peptides, and allowed to stand for 60 min at room temperature. The samples were immediately diluted 10-fold in DMEM and analyzed by the plaque assay, as described above.

In data set [6] the test system is interferon β (Ifnb) gene. The experiment in a line: Gene expression (qPCR) of RAW264.7 macrophages infected with DL-treated MNV-1: Ifnb. In kind it is cell-based. The note with it: MNV-1 exposed to 1.0% DL (pH 6.5 before denaturation) for 60 min, MOI 0.01, 24 h, fold-change vs mock by ΔΔCt, n = 3. The protocol: as §1, §2, §3, §4
The conditions of data set [7]: stated in discussion, no reference given; cited from earlier work. From the text: Lysozyme is a positively charged protein with an isoelectric point of 11. We anticipated that in a high-pH solution (pH 6.5–8.5), the intermolecular forces would become stronger, thus, denaturing the protein structure upon heating. In other words, adjusting the pH to a high value would trigger the loosening of the protein structure during thermal denaturation. […] Of ...

Take “DL: thermally denatured egg white lysozyme, prepared at pH 3.7–8.5”: the “Expression of the Il6 gene” value in data set [1] is recorded as “did not increase”. Further, the “Surface hydrophobicity (fluorescence intensity)” value in data set [2] is reported as “significantly higher than that of native lysozyme at any pH”. For the same substance, the “Infectivity of MNV-1 after exposure, trend with pH” value in data set [3] (0.1% and 0.5% DL final, preparations at different pH, exposure 60 min, n = 3) was “tended to decrease as the pH of DL preparations increased”. In data set [3] (1.0% DL final, DL preparations at pH 4.5–8.5, exposure 1 min, control distilled water, Dunnett's test p < 0.01, n = 3), the “Infectivity of MNV-1 after exposure, versus control” value is “significantly lower than that of the control”. Further, in data set [4], the “Average expansion of MNV-1 particle size” value is reported as 16.37 nm. The “Decrease in MNV-1 infectivity (log reduction)” value (“Decrease … (log reduction)” below) in data set [5] was determined as 0.9 log PFU/mL. Also, in data set [6], the “Expression of the Ifnb gene” value was “did not increase”. For the substance “ITASVNCAKKIVSDGNGMNAWVAWRNRCKGTDVQAWIR [Lzm 88–125, synthetic peptide containing lysozyme residues 88–125]”, the “Decrease … (log reduction)” value in data set [5] was 0.2 log PFU/mL.

As for “KVFGRCELAAAMKRHGLDNYRGYSLGNWVCAAKFE [Lzm 1–35, synthetic peptide containing lysozyme residues 1–35]”, in data set [5], the “Decrease … (log reduction)” value amounted to 1.7 log PFU/mL.

Consider “Lysozyme: egg white lysozyme, single-chain polypeptide consisting of 129 amino acids”, for which the Isoelectric point in data set [7] is listed as 11. On to “RCELAAAMKREGLDNYRGYSLGNWVCAAEFESNFN [Lzm R1, variant of Lzm 5–39, basic amino acids replaced with acidic amino acids]”, for which the “Decrease … (log reduction)” value in data set [5] is “lost”. On to “RCELAAAMKRHGLDNYRGYSLGNNVCAAKNESNNN [Lzm R2, variant of Lzm 5–39, aromatic amino acids replaced to reduce hydrophobicity]”, for which the “Decrease … (log reduction)” value in data set [5] is reported as “lost”. In the case of “RCELAAAMKRHGLDNYRGYSLGNWVCAAKFESNFN [Lzm 5–39, synthetic peptide of lysozyme residues 5–39]”, the “Decrease … (log reduction)” value in data set [5] is given as 1.7 log PFU/mL. “RCNLAAAMKRHGLNNYRGYSLGNWVCAAKFNSNFN [Lzm R3, variant of Lzm 5–39, all acidic amino acids replaced with uncharged amino acids]”: in data set [5], the “Decrease … (log reduction)” value worked out at 2.0 log PFU/mL.
